Test results as given in PMC11355573, “A New Renieramycin T Right-Half Analog as a Small Molecule Degrader of STAT3” (Marine Drugs, 2024).

Tests used:
[1] = biological target: T1, STAT3–ubiquitin complex (Homo sapiens, UniProt P40763); test: Immunoprecipitation and Western blot of STAT3–ubiquitin complex; format: cell-based; details: H460, 2.5 µM, 6 h, MG132 10 µM pretreatment, vs untreated cells
T1 construct: endogenous in cells; host or cells: NCI-H460 (ATCC HTB-177)
Procedure: To explore whether the reduction in total STAT3 protein after DH_31 treatments (as shown in Figure 5B–E) occurs at the mRNA or protein levels, we first investigated mRNA levels using Real-time qPCR. […] To evaluate whether DH_31 affects STAT3 stability, pretreatment with MG132, a potent selective proteasome inhibitor, was performed. H460 cells were pretreated with or without MG132 (10 μM) for 1 h and then cells were either treated with DH_31 for 6 h or left untreated. […] The proteasome can recognize and degrade protein targets that are conjugated by single or poly-ubiquitin molecules. To investigate the ubiquitination level of STAT3 with DH_31 treatments, the ubiquitination level was evaluated using immunoprecipitation and Western blot analysis of the STAT3–ubiquitin complex in the lung cancer cells treated with DH_31 and in untreated cells.
Immunoprecipitation assay was performed to investigate ubiquitin–proteasomal degradation, shedding light on the regulatory mechanisms involved. H460 cells (4.0 × 10^5 cells per well) were seeded in 6-well plates. Following overnight incubation, the cells were pretreated with 10 μM of a proteasome inhibitor, MG132, for 1 h to prevent proteasomal degradation, and then were treated with different concentrations of DH_31 (0–2.5 μM) for 6 h. After treatment, the cells were lysed as described above. […]

[2] = biological target: T2, STAT3 (Homo sapiens, UniProt P40763); test: STAT3 Western blot; format: cell-based; details: H460, 1 μM and 2.5 μM, 24 h (p < 0.05)
T2 construct: endogenous in cells; host or cells: NCI-H460 (ATCC HTB-177)
Procedure: These findings imply that DH_31 exerts its anticancer effects by modulating the expression and/or accumulation of STAT3.
(§1) Western blot analysis was performed to detect and quantify specific proteins in a sample. H460 cells (4.0 × 10^5 cells per well) were seeded in 6 well plates. Following overnight incubation, the cells were treated with different concentrations of DH_31 (0–2.5 μM) for 24 h at 37 °C. After treatment, the cell lysates were isolated using a 1 × RIPA buffer containing a protease inhibitor cocktail for 45 min at 4 °C. The protein content was determined using the BCA protein assay kit. For the Western blot assay, an equal amount of the denatured proteins from cell lysates was separated by electrophoresis on 10 or 12% SDS-PAGE and transferred to 0.2 µm polyvinylidene difluoride (PVDF) membranes (Bio-Rad Laboratories, Hercules, CA, USA). After the membranes were blocked with 5% skim milk, they were then incubated overnight with specific primary antibodies at 4 °C. Subsequently, the membranes were incubated with HRP-conjugated secondary antibodies for 1 h at room temperature. Protein bands were visualized using SuperSignal^TM West Pico PLUS Chemiluminescent Substrate. The protein intensity was analyzed using ImageJ™ software (Image J 1.52a, Rasband, W., National Institutes of Health, Bethesda, MD, USA).

[3] = biological target: T2, STAT3; test: STAT3 immunofluorescence and confocal microscopy; format: cell-based; details: H460, 2.5 µM, 24 h (p < 0.001)
Procedure: To explore whether DH_31 could suppress STAT3, H460 cells were treated with 1 and 2.5 μM of DH_31 for 24 h. Immunofluorescence and confocal microscopy were performed to visualize STAT3 expression.
Immunofluorescence staining and confocal microscopy were conducted to visualize the subcellular localization and spatial distribution of specific proteins. H460 cells (1.0 × 10^4 cells per well) were seeded in 96-well plates. Following overnight incubation, the cells were treated with different concentrations of DH_31 (0–2.5 μM) for 24 h at 37 °C. After treatment, the cells were permeabilized with 0.5% Triton-X in PBS for 5 min, followed by the blocking of non-specific proteins with 10% FBS in 0.1% Triton-X PBS for 1 h at room temperature. Subsequently, the cells were exposed to primary antibodies (STAT3, Slug, Snail, Vimentin, N-cadherin, ZO1, and ZEB1) and incubated at 4 °C overnight. The cells were then incubated with Alexa Fluor 488- or 594-conjugated secondary antibodies and Hoechst 33342 for 1 h at room temperature. After washing with PBS, the cells were covered with 50% glycerol. The images were captured by confocal microscopy (Zeiss, Jena, Germany). The fluorescence intensity was measured using ImageJ™ software (Image J 1.52a, Rasband, W., National Institutes of Health, Bethesda, MD, USA).

[4] = tested on: H460 cells; test: Wound healing assay (migration); format: cell-based, human; details: H460, 1 and 2.5 μM, at 48 h and 72 h, vs untreated cells
Procedure: Wound healing assay was conducted to assess the effects of DH_31 on migration. H292 and H460 cells (4.0–4.2 × 10^4 cells per well) were seeded in 96-well plates. Following overnight incubation, wounds were created by scraping the monolayer cells with a 10 μL pipette tip, and non-adherent cells were washed off with PBS. The cells were treated with different concentrations of DH_31 (0–2.5 μM) in the growth medium containing 1% FBS for 72 h at 37 °C. […] The scratched area was analyzed by using ImageJ™ software (Image J 1.52a, Rasband, W., National Institutes of Health, Bethesda, MD, USA). Cell migration was determined by the rate of cells moving towards the scratched area.

[5] = tested on: EMT markers (ZO1, Slug, Snail, N-cadherin, Vimentin) in H460 cells; test: Western blot of EMT markers; format: cell-based, human
Description: EMT is a biological process that is associated with cancer progression and the spread of cancer cells to other parts of the body. This mechanism facilitates the motility of cancer cells, enhances anoikis resistance, and contributes to poor prognosis due to its high metastatic potential. Given the critical role of EMT in the metastasis processes, we firstly investigated EMT markers. Therefore, to validate that DH_31 inhibits metastasis, H460 cells were selected to elucidate the mechanism because of their enhanced migration and invasion behavior [36]. H460 cells were exposed to the non-toxic concentration range of 0–2.5 µM of DH_31 for 24 h. Subsequently, the evaluation of EMT expression levels was carried out through the application of immunofluorescence assay and Western blotting. We further investigated key hallmarks of EMT, specifically the reduction in the expression levels of epithelial marker (ZO1) and the increase in the expression levels of mesenchymal markers (Slug, Snail, ZEB1, N-cadherin, and Vimentin). […] The expressions of Snail, N-cadherin, and Vimentin were reduced in a concentration-dependent manner. […] Furthermore, the results from the Western blot analysis confirmed the findings from immunofluorescence staining (Figure 3C). […] The protein alterations in response to DH_31 were clarified.
as §1

T2 sequence (P40763 whole entry): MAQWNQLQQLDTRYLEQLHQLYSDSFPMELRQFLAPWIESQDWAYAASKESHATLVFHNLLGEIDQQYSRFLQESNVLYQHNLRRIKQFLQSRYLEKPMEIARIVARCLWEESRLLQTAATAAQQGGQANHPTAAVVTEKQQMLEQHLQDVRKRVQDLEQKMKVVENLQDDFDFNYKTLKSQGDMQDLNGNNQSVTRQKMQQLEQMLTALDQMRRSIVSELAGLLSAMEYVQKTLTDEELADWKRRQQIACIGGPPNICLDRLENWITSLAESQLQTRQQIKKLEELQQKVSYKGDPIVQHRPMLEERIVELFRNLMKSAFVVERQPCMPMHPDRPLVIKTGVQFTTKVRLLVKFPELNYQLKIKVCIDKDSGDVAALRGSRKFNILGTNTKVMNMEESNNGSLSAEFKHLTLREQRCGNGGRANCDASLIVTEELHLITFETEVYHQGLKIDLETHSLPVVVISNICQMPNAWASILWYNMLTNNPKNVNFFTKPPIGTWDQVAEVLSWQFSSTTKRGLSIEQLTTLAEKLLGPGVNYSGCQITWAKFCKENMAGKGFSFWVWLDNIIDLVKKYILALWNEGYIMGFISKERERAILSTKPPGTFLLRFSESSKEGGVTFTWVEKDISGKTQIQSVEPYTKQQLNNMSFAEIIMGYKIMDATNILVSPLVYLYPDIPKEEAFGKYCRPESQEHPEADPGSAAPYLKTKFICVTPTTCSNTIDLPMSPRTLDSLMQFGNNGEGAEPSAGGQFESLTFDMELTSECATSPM
T1 sequence (P40763 2-770 limits assumed, one chain of several): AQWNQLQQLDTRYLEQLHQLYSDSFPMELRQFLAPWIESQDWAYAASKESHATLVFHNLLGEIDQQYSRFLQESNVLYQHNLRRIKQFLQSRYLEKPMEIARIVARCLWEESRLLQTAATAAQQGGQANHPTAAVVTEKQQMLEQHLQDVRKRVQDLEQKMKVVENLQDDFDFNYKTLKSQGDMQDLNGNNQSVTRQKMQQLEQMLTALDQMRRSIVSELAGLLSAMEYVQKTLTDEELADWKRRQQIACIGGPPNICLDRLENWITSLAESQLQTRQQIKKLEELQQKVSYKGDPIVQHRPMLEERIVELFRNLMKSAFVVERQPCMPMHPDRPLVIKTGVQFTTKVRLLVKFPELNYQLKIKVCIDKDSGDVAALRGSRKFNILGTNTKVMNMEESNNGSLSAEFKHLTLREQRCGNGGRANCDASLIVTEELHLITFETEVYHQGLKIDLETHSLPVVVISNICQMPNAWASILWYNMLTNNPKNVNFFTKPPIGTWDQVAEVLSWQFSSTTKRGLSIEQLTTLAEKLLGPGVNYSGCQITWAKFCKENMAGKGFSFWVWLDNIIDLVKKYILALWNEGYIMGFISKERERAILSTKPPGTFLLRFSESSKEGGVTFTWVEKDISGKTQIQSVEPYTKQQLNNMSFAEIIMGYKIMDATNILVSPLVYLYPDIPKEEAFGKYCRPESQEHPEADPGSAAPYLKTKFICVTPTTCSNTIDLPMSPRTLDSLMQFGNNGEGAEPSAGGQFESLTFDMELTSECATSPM

With `COc1c(C)cc2c(c1O)[C@@H]1CN(Cc3ccc4ccccc4c3)[C@@H](C#N)[C@H](C2)N1C` [DH_31, (1R,4R,5S)-10-hydroxy-9-methoxy-8,11-dimethyl-3-(naphthalen-2-ylmethyl)-1,2,3,4,5,6-hexahydro-1,5-epiminobenzo[d]azocine-4-carbonitrile] the “STAT3–ubiquitin formation” value [1] was “significantly enhanced”, the “STAT3 protein level (Western blot)” value [2] was “significant decrease” and the “STAT3 expression (immunofluorescence)” value [3] was “significant reduction”. For the same molecule, the “cell migration across the wound space” value [4] was “significantly decreased”, the “Snail expression (Western blot)” value ([5]; H460, 1 µM (p < 0.05) and 2.5 µM (p < 0.01), 24 h) was “reduced” and the “N-cadherin expression (Western blot)” value ([5]; H460, 2.5 µM, 24 h (p < 0.05)) was “reductions”. The “Slug expression (Western blot)” value ([5]; H460, 2.5 µM, 24 h (p < 0.05)) was “reductions” and the “Vimentin expression (Western blot)” value ([5]; H460, 2.5 µM, 24 h (p < 0.05)) was “reductions”.
